Reference: ChEMBL document CHEMBL1909046, “DrugMatrix in vitro pharmacology data”

Legend:
[1] = DRUGMATRIX: ATPase, Na+/K+ enzyme inhibition (substrate: ATP); type: tissue-based, Sus scrofa, Heart; conditions: Not Active = under 50% inhibition at 10 µM
[2] = DRUGMATRIX: Calcium Channel Type L, Dihydropyridine radioligand binding (ligand: [3H] Nitrendipine); type: cell membranes, Rattus norvegicus, Wistar, Cerebral cortex, Membrane; conditions: Not Active = under 50% inhibition at 10 µM
[3] = biological target: T1, Vasoactive intestinal polypeptide receptor 1 (Homo sapiens, UniProt P32241); type: cell membranes, Membrane; conditions: ht-29; note: in other assays of this panel Not Active means under 50% inhibition at 10 µM
T1 sequence (P32241 whole entry): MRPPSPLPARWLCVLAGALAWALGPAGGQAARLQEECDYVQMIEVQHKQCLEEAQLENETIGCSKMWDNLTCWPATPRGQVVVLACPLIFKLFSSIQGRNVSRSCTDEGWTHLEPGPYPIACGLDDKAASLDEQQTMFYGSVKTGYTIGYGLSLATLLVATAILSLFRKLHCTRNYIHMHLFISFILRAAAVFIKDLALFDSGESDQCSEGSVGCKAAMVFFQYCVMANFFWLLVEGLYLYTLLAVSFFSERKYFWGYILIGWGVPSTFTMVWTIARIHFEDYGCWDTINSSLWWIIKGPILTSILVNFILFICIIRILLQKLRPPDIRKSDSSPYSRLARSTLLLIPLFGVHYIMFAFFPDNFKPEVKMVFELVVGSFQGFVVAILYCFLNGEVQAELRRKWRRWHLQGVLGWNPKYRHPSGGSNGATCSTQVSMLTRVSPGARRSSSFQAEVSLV

Cannabinoid receptor 1 = Cannabinoid receptor 1 (Homo sapiens, UniProt P21554); type: cell membranes, Membrane; conditions: chem-1; note: in other assays of this panel Not Active means under 50% inhibition at 10 µM
[4] = biological target: T2, C-C chemokine receptor type 4 (Homo sapiens, UniProt P51679); type: cell membranes, Membrane; conditions: chem-1; note: in other assays of this panel Not Active means under 50% inhibition at 10 µM
T2 sequence (P51679 whole entry): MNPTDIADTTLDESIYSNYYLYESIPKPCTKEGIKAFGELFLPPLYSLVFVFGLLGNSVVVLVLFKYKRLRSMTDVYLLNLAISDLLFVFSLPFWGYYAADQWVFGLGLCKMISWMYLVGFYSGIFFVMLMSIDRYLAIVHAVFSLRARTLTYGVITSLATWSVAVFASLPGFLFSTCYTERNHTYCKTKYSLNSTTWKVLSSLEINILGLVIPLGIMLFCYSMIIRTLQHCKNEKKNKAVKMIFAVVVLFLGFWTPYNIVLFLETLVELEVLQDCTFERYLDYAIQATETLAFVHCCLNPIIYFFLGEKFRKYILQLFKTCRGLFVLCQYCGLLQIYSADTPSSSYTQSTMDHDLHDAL

[5] = biological target: Prostaglandin G/H synthase 1 (Homo sapiens, UniProt P23219); test: biochemical; type: tissue-based, Platelet; conditions: platelet;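 note: inhibition of COX-1 enzyme activity, with arachidonic acid supplied as substrate; in other assays of this panel Not Active means under 50% inhibition at 10 µM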
Endothelin-1 receptor = biological target: T3, Endothelin-1 receptor (Homo sapiens, UniProt P25101); type: cell membranes, Membrane; conditions: cho-k1; note: in other assays of this panel Not Active means under 50% inhibition at 10 µM
T3 sequence (P25101 whole entry): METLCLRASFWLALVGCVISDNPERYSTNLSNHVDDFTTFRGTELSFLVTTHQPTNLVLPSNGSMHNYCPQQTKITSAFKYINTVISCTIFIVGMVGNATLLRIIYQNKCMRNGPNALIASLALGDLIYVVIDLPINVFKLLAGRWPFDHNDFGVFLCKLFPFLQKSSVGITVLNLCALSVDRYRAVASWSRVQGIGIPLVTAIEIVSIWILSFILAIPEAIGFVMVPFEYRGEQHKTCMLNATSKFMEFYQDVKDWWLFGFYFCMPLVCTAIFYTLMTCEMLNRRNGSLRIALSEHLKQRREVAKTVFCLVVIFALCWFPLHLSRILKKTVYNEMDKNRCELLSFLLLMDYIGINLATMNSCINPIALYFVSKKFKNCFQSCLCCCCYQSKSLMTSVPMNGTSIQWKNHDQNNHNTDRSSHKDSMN

[6] = biological target: T4, Neuropeptide Y receptor type 1 (Homo sapiens, UniProt P25929); type: cell membranes, Membrane; conditions: sk-n-mc; note: in other assays of this panel Not Active means under 50% inhibition at 10 µM
T4 sequence (P25929 whole entry): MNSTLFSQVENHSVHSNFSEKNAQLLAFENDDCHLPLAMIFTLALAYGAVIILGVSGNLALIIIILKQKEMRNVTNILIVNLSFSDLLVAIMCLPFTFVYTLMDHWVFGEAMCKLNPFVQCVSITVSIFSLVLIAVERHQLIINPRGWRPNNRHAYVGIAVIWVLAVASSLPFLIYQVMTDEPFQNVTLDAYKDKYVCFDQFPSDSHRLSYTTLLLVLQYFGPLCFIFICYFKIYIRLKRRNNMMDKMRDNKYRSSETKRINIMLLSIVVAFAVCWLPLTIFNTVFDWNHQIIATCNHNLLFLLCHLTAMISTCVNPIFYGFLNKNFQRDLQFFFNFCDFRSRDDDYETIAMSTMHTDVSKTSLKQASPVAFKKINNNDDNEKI

Caspase-1 = biological target: T5, Caspase-1 (Homo sapiens, UniProt P29466); set-up: species or system Escherichia coli
T5 sequence (P29466 whole entry): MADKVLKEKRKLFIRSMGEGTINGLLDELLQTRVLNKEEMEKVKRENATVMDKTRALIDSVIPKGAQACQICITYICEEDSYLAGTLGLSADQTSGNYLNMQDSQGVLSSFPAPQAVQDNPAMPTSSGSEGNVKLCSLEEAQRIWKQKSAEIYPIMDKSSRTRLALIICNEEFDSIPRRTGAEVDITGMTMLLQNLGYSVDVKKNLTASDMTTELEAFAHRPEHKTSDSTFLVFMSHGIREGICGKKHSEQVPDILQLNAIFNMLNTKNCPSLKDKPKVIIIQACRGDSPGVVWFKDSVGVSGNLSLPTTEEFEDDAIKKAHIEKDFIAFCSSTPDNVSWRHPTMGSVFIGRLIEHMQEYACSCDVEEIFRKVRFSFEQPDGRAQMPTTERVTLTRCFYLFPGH

Adenosine receptor A1 = biological target: T6, Adenosine receptor A1 (Homo sapiens, UniProt P30542); type: cell membranes, CHO, Membrane; conditions: cho
T6 sequence (P30542 whole entry): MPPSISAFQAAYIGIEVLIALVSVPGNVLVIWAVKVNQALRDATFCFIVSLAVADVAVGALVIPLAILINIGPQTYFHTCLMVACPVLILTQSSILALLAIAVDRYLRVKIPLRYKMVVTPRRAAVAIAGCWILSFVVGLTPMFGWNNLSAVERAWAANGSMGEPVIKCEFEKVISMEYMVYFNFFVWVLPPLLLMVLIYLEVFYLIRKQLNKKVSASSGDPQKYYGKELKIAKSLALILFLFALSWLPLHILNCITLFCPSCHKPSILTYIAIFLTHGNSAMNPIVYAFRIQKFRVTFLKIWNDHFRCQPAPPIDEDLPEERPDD

Chain of Prostaglandin G/H synthase 1 (P23219 whole entry): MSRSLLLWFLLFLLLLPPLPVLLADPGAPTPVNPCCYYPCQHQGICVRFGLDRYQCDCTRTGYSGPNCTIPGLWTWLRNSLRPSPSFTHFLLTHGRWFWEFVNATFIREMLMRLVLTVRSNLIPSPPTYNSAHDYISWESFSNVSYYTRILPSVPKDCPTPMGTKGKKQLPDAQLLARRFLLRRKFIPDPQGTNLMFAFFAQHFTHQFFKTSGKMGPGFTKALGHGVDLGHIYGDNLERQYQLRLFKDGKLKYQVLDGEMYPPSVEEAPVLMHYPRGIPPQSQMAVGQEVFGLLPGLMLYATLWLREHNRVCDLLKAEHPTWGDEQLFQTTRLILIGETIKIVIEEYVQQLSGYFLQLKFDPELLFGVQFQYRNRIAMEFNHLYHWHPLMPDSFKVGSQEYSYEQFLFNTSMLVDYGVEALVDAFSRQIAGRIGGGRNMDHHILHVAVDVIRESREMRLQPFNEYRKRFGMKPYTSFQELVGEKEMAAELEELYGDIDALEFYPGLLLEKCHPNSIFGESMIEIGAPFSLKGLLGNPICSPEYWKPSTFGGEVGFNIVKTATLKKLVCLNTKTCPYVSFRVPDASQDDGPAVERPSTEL
Chain of Cannabinoid receptor 1 (P21554 whole entry): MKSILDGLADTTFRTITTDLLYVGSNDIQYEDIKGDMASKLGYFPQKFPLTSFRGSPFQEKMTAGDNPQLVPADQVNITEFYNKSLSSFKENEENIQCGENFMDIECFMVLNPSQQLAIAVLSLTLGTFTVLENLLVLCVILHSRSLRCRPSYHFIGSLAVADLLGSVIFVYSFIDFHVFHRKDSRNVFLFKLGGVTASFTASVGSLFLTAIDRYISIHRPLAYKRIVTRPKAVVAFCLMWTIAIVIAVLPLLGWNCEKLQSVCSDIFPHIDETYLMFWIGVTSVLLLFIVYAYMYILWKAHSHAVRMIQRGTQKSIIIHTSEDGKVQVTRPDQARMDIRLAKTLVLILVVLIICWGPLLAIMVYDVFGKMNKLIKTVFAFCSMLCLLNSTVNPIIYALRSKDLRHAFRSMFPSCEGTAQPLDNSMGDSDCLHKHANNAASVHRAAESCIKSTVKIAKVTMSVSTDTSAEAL

CO[C@@H]1[C@@H](O[C@@H]2O[C@H](C)[C@@H](O[C@H]3C[C@@](C)(O)[C@@H](OC(=O)CC(C)C)[C@H](C)O3)[C@H](N(C)C)[C@H]2O)[C@@H](CC=O)C[C@@H](C)[C@@H](O)/C=C/C=C/C[C@@H](C)OC(=O)C[C@H]1O [KITASAMYCIN]
Not Active: IC50 [1] | Ki [1] | IC50 [2] | Ki [2] | IC50 [3] | IC50 (Cannabinoid receptor 1) | IC50 [4] | IC50 [5] | IC50 (Endothelin-1 receptor) | IC50 [6] | IC50 (Caspase-1) | IC50 (Adenosine receptor A1)

C[C@]12Cc3c[nH]nc3C[C@@H]1CC[C@@H]1[C@@H]2CC[C@@]2(C)[C@H]1CC[C@]2(C)O [STANOZOLOL]
Not Active: IC50 [1] | Ki [1] | IC50 [2] | Ki [2] | IC50 [3] | IC50 (Cannabinoid receptor 1) | IC50 [4] | IC50 [5] | IC50 (Endothelin-1 receptor) | IC50 [6] | IC50 (Caspase-1) | IC50 (Adenosine receptor A1)

CCOC(=O)[C@H](CCc1ccccc1)N[C@@H](C)C(=O)N1[C@H](C(=O)O)C[C@@H]2CCC[C@@H]21
Not Active: IC50 [1] | Ki [1] | IC50 [2] | Ki [2] | IC50 [3] | IC50 (Cannabinoid receptor 1) | IC50 [4] | IC50 [5] | IC50 (Endothelin-1 receptor) | IC50 [6] | IC50 (Caspase-1) | IC50 (Adenosine receptor A1)

CN[C@@H]1[C@@H](O)[C@@H](O[C@@H]2[C@@H](O)[C@H](O[C@H]3OC(CN)=CC[C@H]3N)[C@@H](N)C[C@H]2N)OC[C@]1(C)O [SISOMICIN]
Not Active: IC50 [1] | Ki [1] | IC50 [2] | Ki [2] | IC50 [3] | IC50 (Cannabinoid receptor 1) | IC50 [4] | IC50 [5] | IC50 (Endothelin-1 receptor) | IC50 [6] | IC50 (Caspase-1) | IC50 (Adenosine receptor A1)

Clc1ccc(C(c2ccccc2Cl)C(Cl)Cl)cc1 (configuration not stated) [MITOTANE]
Not Active: IC50 [1] | Ki [1] | IC50 [2] | Ki [2] | IC50 [3] | IC50 (Cannabinoid receptor 1) | IC50 [4] | IC50 [5] | IC50 (Endothelin-1 receptor) | IC50 [6] | IC50 (Caspase-1) | IC50 (Adenosine receptor A1)

CN(C)[C@@H]1C(O)=C(C(N)=O)C(=O)[C@@]2(O)C(O)=C3C(=O)c4c(O)cccc4[C@@](C)(O)[C@H]3C[C@@H]12 [TETRACYCLINE]
Not Active: IC50 [1] | Ki [1] | IC50 [2] | Ki [2] | IC50 [3] | IC50 (Cannabinoid receptor 1) | IC50 [4] | IC50 [5] | IC50 (Endothelin-1 receptor) | IC50 [6] | IC50 (Caspase-1) | IC50 (Adenosine receptor A1)

COC(=O)[C@@H]1[C@H]2C[C@H]3c4[nH]c5ccccc5c4CCN3C[C@@H]2CC[C@@H]1O [YOHIMBINE]
Not Active: IC50 [1] | Ki [1] | IC50 [2] | Ki [2] | IC50 [3] | IC50 (Cannabinoid receptor 1) | IC50 [4] | IC50 [5] | IC50 (Endothelin-1 receptor) | IC50 [6] | IC50 (Caspase-1) | IC50 (Adenosine receptor A1)

CC(C)(C)NCC(O)c1ccc(O)c(CO)c1 (configuration not stated) [ALBUTEROL]
Not Active: IC50 [1] | Ki [1] | IC50 [2] | Ki [2] | IC50 [3] | IC50 (Cannabinoid receptor 1) | IC50 [4] | IC50 [5] | IC50 (Endothelin-1 receptor) | IC50 [6] | IC50 (Caspase-1) | IC50 (Adenosine receptor A1)

O=C1c2c(O)ccc(O)c2C(=O)c2c(NCCNCCO)ccc(NCCNCCO)c21 [MITOXANTRONE]
Not Active: IC50 [1] | Ki [1] | IC50 [2] | Ki [2] | IC50 [3] | IC50 (Cannabinoid receptor 1) | IC50 [4] | IC50 [5] | IC50 (Endothelin-1 receptor) | IC50 [6] | IC50 (Caspase-1) | IC50 (Adenosine receptor A1)

CC(CCc1ccccc1)NCC(O)c1ccc(O)c(C(N)=O)c1 (configuration not stated) [LABETALOL]
Not Active: IC50 [1] | Ki [1] | IC50 [2] | Ki [2] | IC50 [3] | IC50 (Cannabinoid receptor 1) | IC50 [4] | IC50 [5] | IC50 (Endothelin-1 receptor) | IC50 [6] | IC50 (Caspase-1) | IC50 (Adenosine receptor A1)

CN(N=O)C(=O)N[C@@H](C=O)[C@@H](O)[C@H](O)[C@H](O)CO [STREPTOZOCIN]
Not Active: IC50 [1] | Ki [1] | IC50 [2] | Ki [2] | IC50 [3] | IC50 (Cannabinoid receptor 1) | IC50 [4] | IC50 [5] | IC50 (Endothelin-1 receptor) | IC50 [6] | IC50 (Caspase-1) | IC50 (Adenosine receptor A1)
